According to article PMC8205226, “HIV-1 Integrase Inhibitors with Modifications That Affect Their Potencies against Drug Resistant Integrase Mutants” (ACS Infectious Diseases, 2021):

Assays:
Assay type in all cases: cell-based
[1] = tested on: HIV-1 IN double mutant G140S/Q148H; experiment: single-round infectivity assay, G140S/Q148H IN double mutant
Procedure: (§1) Figure 2 Antiviral activities of the new compounds against RAL-resistant mutants. The EC50 values were determined using a vector that carries WT HIV-1 IN and the RAL-resistant mutants in a single round infection assay. […] Error bars represent the standard deviations of independent experiments, n = 4, performed in triplicate. The graph has a maximum value of 550 nM.
(§2) WT and mutant HIV-1 viral vectors were used in single-round infectivity assays to determine the antiviral potencies (EC50 values) of the compounds and the effects of the mutants on the EC50 values as previously described.[30],[54] Single round infectivity measurements were determined as done previously.[38]
(§3) The vector pNLNgoMIVR-ΔENV.LUC has been described previously.[26] To produce the new IN mutants used in this study, the IN open reading frame was removed from pNLNgoMIVR-ΔENV.LUC by digestion with KpnI and SalI, and the resulting fragment was inserted between the KpnI and SalI sites of pBluescript KS+. Using that construct as the wild-type template, we prepared the following HIV-1 IN mutants using the QuikChange II XL site directed mutagenesis kit (Agilent Technologies, Santa Clara, CA) protocol: N117A, N117H, P142A, P142H, P142S, Y143C, Y143H, S230R, R231G, and R231K. The following sense oligonucleotides were used with matching cognate antisense oligonucleotides (not shown) (Integrated DNA Technologies, Coralville, IA) in the mutagenesis: N117A, 5′-[…]-3′; N117H, 5′-[…]-3′; P142A, 5′-[…]-3′; P142H, 5′-[…]-3′; P142S, 5′-[…]-3′; Y143C, 5′- […]-3′; Y143H, 5′-[…]-3′; S230R, 5′- […]-3′; R231G, 5′-[…]-3′; R231K, 5′-[…]-3′.

[2] = tested on: HIV-1 IN mutant S119R; experiment: single-round infectivity assay, S119R IN mutant
Procedure: (§4) The EC50 values were determined using a vector that carries the IN mutant in a single round infection assay. […] Error bars represent the standard deviations of independent experiments, n = 4, performed in triplicate.
as §2, §3

[3] = tested on: HIV-1 IN mutant N117H; experiment: single-round infectivity assay, N117H IN mutant
Procedure: as §4, §2, §3

[4] = tested on: HIV-1 IN mutant P142A; experiment: single-round infectivity assay, P142A IN mutant
Procedure: as §4, with “Figure 4 Mutations in the β5-α3 loop affect the antiviral potencies of the new compounds. The” for “The”
as §2, §3

[5] = tested on: HIV-1 IN mutant N117A; experiment: single-round infectivity assay, N117A IN mutant
Procedure: as §4, §2, §3

[6] = tested on: HIV-1 IN mutant R231G; experiment: single-round infectivity assay, R231G IN mutant
Procedure: as §4, with “Figure 5 Antiviral potencies of the new compounds against IN with mutations in the […]. The” for “The”
as §2, §3

[7] = tested on: HIV-1 IN mutant G118R; experiment: single-round infectivity assay, G118R IN mutant
Procedure: as §4, §2, §3

[8] = tested on: HIV-1 IN mutant P142H; experiment: single-round infectivity assay, P142H IN mutant
Procedure: as §4
Single round infectivity measurements were determined as done previously.[38]
as §3

[9] = tested on: HIV-1 IN mutant S230R; experiment: single-round infectivity assay, S230R IN mutant
Procedure: as §4, with “Figure 5 Antiviral potencies of the new compounds against IN with mutations in the […]. The” for “The”
as §2, §3

[10] = tested on: WT HIV-1; experiment: single-round infectivity assay, WT HIV-1 IN vector; conditions: Human immunodeficiency virus 1, read-out: EC50 values WT, vector carrying WT HIV-1 IN, single round infection, n = 4; new compounds
Procedure: as §1, §2, §3

[11] = tested on: HIV-1 IN mutant Y143R; experiment: single-round infectivity assay, Y143R IN mutant
Procedure: as §1, §2, §3

[12] = tested on: HIV-1 IN mutant Y143C; experiment: single-round infectivity assay, Y143C IN mutant
Procedure: as §4, with “Figure 4 Mutations in the β5-α3 loop affect the antiviral potencies of the new compounds. The” for “The”
as §2, §3

[13] = tested on: HIV-1 IN mutant Y143H; experiment: single-round infectivity assay, Y143H IN mutant
Procedure: as §4, with “Figure 4 Mutations in the β5-α3 loop affect the antiviral potencies of the new compounds. The” for “The”
as §2, §3

[14] = tested on: HIV-1 IN mutant R231K; experiment: single-round infectivity assay, R231K IN mutant
Procedure: as §4, with “Figure 5 Antiviral potencies of the new compounds against IN with mutations in the […]. The” for “The”
as §2, §3

[15] = tested on: HIV-1 IN mutant P142S; experiment: single-round infectivity assay, P142S IN mutant
Procedure: as §4, with “Figure 4 Mutations in the β5-α3 loop affect the antiviral potencies of the new compounds. The” for “The”
as §2, §3

[16] = tested on: HIV-1 IN mutant N155H; experiment: single-round infectivity assay, N155H IN mutant
Procedure: as §1, §2, §3

[17] = fold change in EC50, IN mutant versus WT HIV-1

O=C(NCc1ccc(F)cc1F)c1c(O)c2c(CO)ccnc2n(O)c1=O [5j, N-(2,4-Difluorobenzyl)-1,4-dihydroxy-5-(hydroxymethyl)-2-oxo-1,2-dihydro-1,8-naphthyridine-3-carboxamide]
ratio of the EC50s (our compound relative to DTG) against G140S/Q148H ([1]; EC50 compound / EC50 DTG): 2.5 | EC50 ([1]; Human immunodeficiency virus 1, read-out: EC50 values G140S/Q148H): 14.7 ± 1.1 nM | FC G140S/Q148H [1, 17]: 2.0 | ratio of the EC50s (our compound relative to DTG) against S119R ([2]; EC50 compound / EC50 DTG): 3.0 | EC50 ([2]; Human immunodeficiency virus 1, read-out: EC50 values S119R): 7 ± 0.2 nM | FC S119R [2, 17]: 1.0 | ratio of the EC50s (our compound relative to DTG) against N117H ([3]; EC50 compound / EC50 DTG): 1.4 | EC50 ([3]; Human immunodeficiency virus 1, read-out: EC50 values N117H): 3.4 ± 0.4 nM | FC N117H [3, 17]: 0.5 | ratio of the EC50s (our compound relative to DTG) against P142A ([4]; EC50 compound / EC50 DTG): 1.9 | EC50 ([4]; Human immunodeficiency virus 1, read-out: EC50 values P142A): 4.7 ± 0.1 nM | ratio of the EC50s (our compound relative to DTG) against N117A ([5]; EC50 compound / EC50 DTG): 26.8 | EC50 ([5]; Human immunodeficiency virus 1, read-out: EC50 values N117A): 13.4 ± 1.5 nM | FC N117A [5, 17]: 1.8 | ratio of the EC50s (our compound relative to DTG) against R231G ([6]; EC50 compound / EC50 DTG): 1.8 | EC50 ([6]; Human immunodeficiency virus 1, read-out: EC50 values R231G): 2.5 ± 0.6 nM | FC R231G [6, 17]: 0.3 | ratio of the EC50s (our compound relative to DTG) against G118R ([7]; EC50 compound / EC50 DTG): 2.3 | EC50 ([7]; Human immunodeficiency virus 1, read-out: EC50 values G118R): 30 ± 5 nM | ratio of the EC50s (our compound relative to DTG) against P142H ([8]; EC50 compound / EC50 DTG): 1.3 | EC50 ([8]; Human immunodeficiency virus 1, read-out: EC50 values P142H): 3.5 ± 0.1 nM | ratio of the EC50s (our compound relative to DTG) against S230R ([9]; EC50 compound / EC50 DTG): 1.7 | EC50 ([9]; Human immunodeficiency virus 1, read-out: EC50 values S230R): 7.7 ± 1 nM | FC S230R [9, 17]: 1.1 | EC50 [10]: 7.3 ± 0.6 nM | ratio of the EC50s (our compound relative to DTG) against Y143R ([11]; EC50 compound / EC50 DTG): 0.6 | EC50 ([11]; Human immunodeficiency virus 1, read-out: EC50 values Y143R): 2.6 ± 0.4 nM | FC Y143R [11, 17]: 0.4 | ratio of the EC50s (our compound relative to DTG) against Y143C ([12]; EC50 compound / EC50 DTG): 1.7 | EC50 ([12]; Human immunodeficiency virus 1, read-out: EC50 values Y143C, single round infection, n = 4): 2.4 ± 0.1 nM | FC Y143C [12, 17]: 0.3 | ratio of the EC50s (our compound relative to DTG) against Y143H ([13]; EC50 compound / EC50 DTG): 1.2 | EC50 ([13]; Human immunodeficiency virus 1, read-out: EC50 values Y143H, single round infection, n = 4): 2.6 ± 0.2 nM | FC Y143H [13, 17]: 0.4 | ratio of the EC50s (our compound relative to DTG) against R231K ([14]; EC50 compound / EC50 DTG): 1.4 | EC50 ([14]; Human immunodeficiency virus 1, read-out: EC50 values R231K, single round infection, n = 4): 5.9 ± 0.2 nM | FC R231K [14, 17]: 0.8 | ratio of the EC50s (our compound relative to DTG) against P142S ([15]; EC50 compound / EC50 DTG): 1.6 | EC50 ([15]; Human immunodeficiency virus 1, read-out: EC50 values P142S): 3.5 ± 0.5 nM | ratio of the EC50s (our compound relative to DTG) against N155H ([16]; EC50 compound / EC50 DTG): 4.1 | EC50 ([16]; Human immunodeficiency virus 1, read-out: EC50 values N155H): 14.9 ± 3.6 nM | FC N155H [16, 17]: 2.0
